{"source": "patent US20140093457A1", "about": "“Compositions, methods and kits for remineralization and inhibition of dental caries in teeth” (President and Fellows of Harvard College, priority 2010, published 2014)", "key": {"[1]": {"assay": "Intensity and duration of fluorescence of probe dilutions bound to caries", "settings": "for fluorescent intensity compared to IR820 (ICG): dilutions 1:10 and 1:100 of 1 mg/mL stock, deep and shallow lesions", "protocol": "Probes were tested for appropriate concentration, kinetics of binding and retention. Intensity of the illumination light, and the size of the illumination light beam were varied, and data were recorded for each probe. […] The concentration of each probe was varied to determine an optimum concentration for binding during a time period suitable for dental use. Durations of contacting were also tested, for example about 10 seconds, about 20 seconds, about 40 seconds, or about 60 seconds. Binding of the probes to the surface of a tooth having different occlusal cavity conditions were also determined, e.g., plaque, gingival, calculus.\nSee FIG. 10A and FIG. 10B, and FIG. 11A-FIG. 11D."}, "[2]": {"assay": "Detection probes on interproximal models of extracted human teeth", "settings": "for degree of detection: early stage caries lesion, optical observation; for emission wavelength (nm) / excitation/absorbance wavelength (nm): probe bound to interproximal enamel caries", "protocol": "Interproximal models of extracted human teeth (molars and premolars) were fabricated using silicon impression materials. Interproximal enamel caries at about […] depth and at about 1.5 mm depth were prepared by using areas of interproximal contact regions. The dental preparations having synthetic caries were assessed by radiographic films (bitewings) and a microscope.\nA cotton ball was saturated with the detection probe, and placed in contact with the region of the interproximal enamel caries. The bound probe was observed by illuminating over a varying set of different wavelengths of excitation light, followed by detecting light of fluorescent emissions. Furthermore, absorbance of the illuminating wavelengths was detected as appropriate for each probe.\nEach tooth preparation having interproximal enamel caries and bound probe was illuminated and photographed."}, "[3]": {"assay": "Removal of OsteoSense 750 from hydroxyapatite, spectrophotometry at 750 nm", "settings": "hydrogen peroxide 30%, phosphoric acid 40%", "protocol": "The tubes were vortexed, and the mixture was allowed to settle to obtain a supernatant. Each supernatant was collected and analyzed for probe content using a spectrophotomer.\nThe HA sample was washed with PBS and a spectrophotometric scan of the wash solution was performed."}, "[4]": {"settings": "hydrogen peroxide 38%", "protocol": "The efficacy of removal of the probe by the solution was determined by criteria such as extent of fluorescence remaining on a tooth after rinse, or fluorescence extracted from hydroxyapatite into a rinse solution."}, "[5]": {"assay": "RFU comparison of solutions to release OsteoSense 750 from HA", "description": "Variables included conditions of pH, temperature, and presence of 1% calcium chloride.\nThree conditions were tested: incubation for 15 minutes at 37° C. after vortexing; adjusting pH to 6.5 at 23° C. after vortexing; and addition of 1% calcium chloride to each solution and incubation at room temperature after vortexing."}, "[6]": {"settings": "1% solution with calcium chloride (1%), room temperature"}, "[7]": {"settings": "1% solution, 15 minutes at 37° C."}, "[8]": {"settings": "1% solution, pH 6.5, room temperature"}, "[9]": {"settings": "5% solution with calcium chloride (1%), room temperature"}, "[10]": {"settings": "5% solution, 15 minutes at 37° C."}, "[11]": {"settings": "5% solution, pH 6.5, room temperature"}, "[12]": {"settings": "10% solution with calcium chloride (1%), room temperature"}, "[13]": {"settings": "10% solution, 15 minutes at 37° C."}, "[14]": {"settings": "10% solution, pH 6.5, room temperature"}, "[15]": {"settings": "20% solution with calcium chloride (1%), room temperature"}, "[16]": {"settings": "20% solution, 15 minutes at 37° C."}, "[17]": {"settings": "20% solution, pH 6.5, room temperature"}}, "note": "Like-named read-outs stand apart in the source and are kept apart here."}
{"compound": "CC1(C)C(/C=C/C=C/C=C/C=C2\\N(CCCCS(=O)(=O)[O-])c3ccc4ccccc4c3C2(C)C)=[N+](CCCCS(=O)(=O)[O-])c2ccc3ccccc3c21.[Na+]", "note": "[CardioGreen (ICG)]", "values": [{"measurement": "fluorescent intensity compared to IR820 (ICG)", "setting": "[1]", "value": "greater fluorescent intensity at each concentration and lesion depth compared to IR820 (ICG)"}, {"measurement": "degree of detection", "setting": "[2]", "value": "Good"}, {"measurement": "emission wavelength (nm)", "setting": "[2]", "value": "820-870 nm"}, {"measurement": "excitation/absorbance wavelength (nm)", "setting": "[2]", "value": "750-800 nm"}]}
{"compound": "CC1(C)C(/C=C/C=C/C=C/C=C2\\N(CCCCS(=O)(=O)O)c3ccc4ccccc4c3C2(C)C)=[N+](CCCCS(=O)(=O)[O-])c2ccc3ccccc3c21", "note": "[Indocyanine Green]", "values": [{"measurement": "degree of detection", "setting": "[2]", "value": "Weak"}, {"measurement": "emission wavelength (nm)", "setting": "[2]", "value": 835, "unit": "nm"}, {"measurement": "excitation/absorbance wavelength (nm)", "setting": "[2]", "value": 800, "unit": "nm"}]}
{"compound": "C1=Cc2cc3ccc(cc4nc(cc5ccc(cc1n2)[nH]5)C=C4)[nH]3", "note": "[Porphyrin]", "values": [{"measurement": "degree of detection", "setting": "[2]", "value": "Good"}, {"measurement": "emission wavelength (nm)", "setting": "[2]", "value": 700, "unit": "nm"}, {"measurement": "excitation/absorbance wavelength (nm)", "setting": "[2]", "value": 600, "unit": "nm"}, {"measurement": "optical observation of early stage caries lesion with bound probe (photograph)", "setting": "[2]; tooth preparation illuminated and photographed", "value": "Fluorescence of an early stage caries lesion was observed"}]}
{"compound": "OO", "note": "[hydrogen peroxide]", "values": [{"measurement": "spectrometric signal at 750 nm in supernatant (release of OsteoSense 750 from HA)", "setting": "[3]", "value": "no signal at 750 nm"}, {"measurement": "fluorescence of OsteoSense 750 bound to caries lesion after application with a syringe", "setting": "[4]", "value": "eliminated fluorescence"}, {"measurement": "fluorescence of OsteoSense 750 bound to the tooth after rinse", "setting": "[4]; ten minutes after application", "value": "substantially eliminated"}, {"measurement": "fluorescence of OsteoSense 750 bound to the tooth after rinse", "setting": "[4]; three minutes after application", "value": "substantially reduced"}]}
{"compound": "O=P(O)(O)O", "note": "[phosphoric acid (PA), phosphoric acid]", "values": [{"measurement": "% released of total OsteoSense", "setting": "[5]; [6]", "value": 1.01, "unit": "%"}, {"measurement": "% released of total reference value", "setting": "[5]; [6]", "value": 2.27, "unit": "%"}, {"measurement": "Raw RFU value", "setting": "[5]; [6]", "value": 0.38, "unit": "RFU"}, {"measurement": "% released of total OsteoSense", "setting": "[5]; [7]", "value": 4.61, "unit": "%"}, {"measurement": "% released of total reference value", "setting": "[5]; [7]", "value": 7.36, "unit": "%"}, {"measurement": "Raw RFU value", "setting": "[5]; [7]", "value": 1.73, "unit": "RFU"}, {"measurement": "% released of total OsteoSense", "setting": "[5]; [8]", "value": 6.17, "unit": "%"}, {"measurement": "% released of total reference value", "setting": "[5]; [8]", "value": 18.74, "unit": "%"}, {"measurement": "Raw RFU value", "setting": "[5]; [8]", "value": 2.31, "unit": "RFU"}, {"measurement": "% released of total OsteoSense", "setting": "[5]; [9]", "value": 9.44, "unit": "%"}, {"measurement": "% released of total reference value", "setting": "[5]; [9]", "value": 40.79, "unit": "%"}, {"measurement": "Raw RFU value", "setting": "[5]; [9]", "value": 3.54, "unit": "RFU"}, {"measurement": "% released of total OsteoSense", "setting": "[5]; [10]", "value": 9.78, "unit": "%"}, {"measurement": "% released of total reference value", "setting": "[5]; [10]", "value": 18.94, "unit": "%"}, {"measurement": "Raw RFU value", "setting": "[5]; [10]", "value": 3.67, "unit": "RFU"}, {"measurement": "% released of total OsteoSense", "setting": "[5]; [11]", "value": 28.38, "unit": "%"}, {"measurement": "% released of total reference value", "setting": "[5]; [11]", "value": 39.54, "unit": "%"}, {"measurement": "Raw RFU value", "setting": "[5]; [11]", "value": 10.64, "unit": "RFU"}, {"measurement": "% released of total OsteoSense", "setting": "[5]; [12]", "value": 10.57, "unit": "%"}, {"measurement": "% released of total reference value", "setting": "[5]; [12]", "value": 43.29, "unit": "%"}, {"measurement": "Raw RFU value", "setting": "[5]; [12]", "value": 3.97, "unit": "RFU"}, {"measurement": "% released of total OsteoSense", "setting": "[5]; [13]", "value": 4.37, "unit": "%"}, {"measurement": "% released of total reference value", "setting": "[5]; [13]", "value": 9.10, "unit": "%"}, {"measurement": "Raw RFU value", "setting": "[5]; [13]", "value": 1.64, "unit": "RFU"}, {"measurement": "% released of total OsteoSense", "setting": "[5]; [14]", "value": 45.32, "unit": "%"}, {"measurement": "% released of total reference value", "setting": "[5]; [14]", "value": 67.03, "unit": "%"}, {"measurement": "Raw RFU value", "setting": "[5]; [14]", "value": 17.00, "unit": "RFU"}, {"measurement": "% released of total OsteoSense", "setting": "[5]; [15]", "value": 5.12, "unit": "%"}, {"measurement": "% released of total reference value", "setting": "[5]; [15]", "value": 11.99, "unit": "%"}, {"measurement": "Raw RFU value", "setting": "[5]; [15]", "value": 1.92, "unit": "RFU"}, {"measurement": "% released of total OsteoSense", "setting": "[5]; [16]", "value": 3.54, "unit": "%"}, {"measurement": "% released of total reference value", "setting": "[5]; [16]", "value": 8.51, "unit": "%"}, {"measurement": "Raw RFU value", "setting": "[5]; [16]", "value": 1.33, "unit": "RFU"}, {"measurement": "% released of total OsteoSense", "setting": "[5]; [17]", "value": 25.34, "unit": "%"}, {"measurement": "% released of total reference value", "setting": "[5]; [17]", "value": 39.91, "unit": "%"}, {"measurement": "Raw RFU value", "setting": "[5]; [17]", "value": 9.50, "unit": "RFU"}, {"measurement": "spectrometric signal at 750 nm in supernatant (release of OsteoSense 750 from HA)", "setting": "[3]", "value": "definite peak at 750 nm"}]}
{"compound": "cyanine dye 7 [Cy7]", "values": [{"measurement": "retained fluorescence intensity compared to CardioGreen (ICG) diluted 1:10", "setting": "[1]; diluted 1:10, deep and shallow lesions", "value": "much greater intensity in both deep and shallow lesions"}, {"measurement": "fluorescent intensity compared to IR820 (ICG)", "setting": "[1]", "value": "greater fluorescent intensity at each concentration and lesion depth compared to IR820 (ICG)"}, {"measurement": "emission wavelength (nm)", "setting": "[2]", "value": "760-800 nm"}, {"measurement": "excitation/absorbance wavelength (nm)", "setting": "[2]", "value": "700-770 nm"}]}
